Here are results for 36 compounds from patent US20230075856A1, “CYCLIC SULFAMIDE COMPOUNDS FOR TREATMENT OF HBV” (Assembly Biosciences, Inc., priority 2018, published 2023).

The test system of one experiment is HBV viral load production from HepAD38 cells. The experiment is described as follows: Viral production from HepAD38 cells: viral load in supernatant by qPCR of the HBV core sequence. Format: cell-based. As to conditions: 5 days incubation, qPCR of supernatant HBV DNA vs DMSO control, read-out: viral load lowering EC50 (Activity). The gist of the method:
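HepAD38 cells seeded at 50,000/well in tetracycline-free medium with 2% FBS, treated with compounds (final top concentration 10 μM) for 5 days at 37 °C. Supernatant HBV DNA quantified by TaqMan qPCR of core sequence against HBV DNA standards, relative to DMSO controls; EC50 by four-parameter logistic fit.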
(Real-time PCR tracks product formation cycle by cycle.)
As to `CN1C(C(=O)Nc2ccc(F)c(Cl)c2)CC(C(=O)NCc2cc(-c3ccccc3Cl)no2)NS1(=O)=O` (single isomer, unassigned; isomer-a) [1025-ISOMER-A, N3-(3-chloro-4-fluro-phenyl)-N5-[[3-(2-chlorophenyl)isoxazol-5-yl]methyl]-2-methyl-1,1-dioxo-1,2,6-thiadiazinane-3,5-dicarboxamide], the half-maximal effective concentration (EC50) is less than 50 nM. The same measure, in the same setting: then `CN1C(C(=O)Nc2ccc(F)c(Cl)c2)CC(C(=O)NCc2nn(-c3ccccc3F)c3ccccc23)NS1(=O)=O` (single isomer, unassigned) [1086-ISOMER-B, N3-(3-chloro-4-fluoro-phenyl)-N5-[[1-(2-fluorophenyl)indazol-3-yl]methyl]-2-methyl-1,1-dioxo-1,2,6-thiadiazinane-3,5-dicarboxamide], with 100 to 10000 nM.

For `CN1C(C(=O)Nc2ccc(F)c(Cl)c2)CC(C(=O)N[C@@H]2CCN(c3ccnc(Cl)c3)C2)NS1(=O)=O` (single isomer, unassigned) [1055-R-ISOMER-B], the EC50 was less than 50 nM. Still for that read-out and setting: then `COc1ccc(CNC(=O)C2CC(C(=O)Nc3ccc(F)c(Cl)c3)N(C)S(=O)(=O)N2)cc1` (single isomer, unassigned) [Compound 717-ISOMER-B, N3-(3-chloro-4-fluoro-phenyl)-N5-[(4-methoxyphenyl)methyl]-2-methyl-1,1-dioxo-1,2,6-thiadiazinane-3,5-dicarboxamide], with 50 to 100 nM; and `CN1C(C(=O)Nc2ccc(F)c(Cl)c2)CC(C(=O)NCc2nc(C(F)(F)F)cs2)NS1(=O)=O` (single isomer, unassigned) [1202-ISOMER-B, N3-(3-chloro-4-fluoro-phenyl)-2-methyl-1,1-dioxo-N5-[[4-(trifluoromethyl)thiazol-2-yl]methyl]-1,2,6-thiadiazinane-3,5-dicarboxamide], with less than 50 nM.

As for `Cc1ncc(CNC(=O)C2CC(C(=O)Nc3ccc(F)c(Cl)c3)N(C)S(=O)(=O)N2)s1` (single isomer, unassigned; isomer-a) [Compound 495-ISOMER-A, N3-(3-chloro-4-fluroo-phenyl)-2-methyl-N5-[(2-methylthiazol-5-yl)methyl]-1,1-dioxo-1,2,6-thiadiazinane-3,5-dicarboxamide], the EC50 fell in the range of 100 to 10000 nM.

Still in this experiment, the particulars now being: Hepatitis B virus, HePAD38, 120 h, 5 days incubation, qPCR of supernatant HBV DNA vs DMSO control, read-out: viral load lowering EC50 (Activity).
With `CN1C(C(=O)Nc2ccc(F)c(Cl)c2)CC(C(=O)NCc2ccccc2Cl)NS1(=O)=O` (stereo not drawn) [Compound 820], the EC50 is less than 50 nM.

In the case of `CN1C(C(=O)Nc2ccc(F)c(Cl)c2)CC(C(=O)NC(c2ccccc2)c2cnc(-c3ccccc3Cl)s2)NS1(=O)=O` (stereo not drawn) [Compound 1068], the EC50 lay within 50 to 100 nM. Still for that read-out and setting: then `CN1C(C(=O)Nc2ccc(F)c(Cl)c2)CC(C(=O)NCc2ccccc2)NS1(=O)=O` (stereo not drawn) [Compound 718], with less than 50 nM; and `Cc1cccc(CNC(=O)C2CC(C(=O)Nc3ccc(F)c(Cl)c3)N(C)S(=O)(=O)N2)n1` (stereo not drawn) [Compound 716], with less than 50 nM; and `CN1C(C(=O)Nc2ccc(F)c(Cl)c2)CC(C(=O)NCc2nn(-c3ccccc3F)c3ccccc23)NS1(=O)=O` (single isomer, unassigned) [1086-ISOMER-A, N3-(3-chloro-4-fluoro-phenyl)-N5-[[1-(2-fluorophenyl)indazol-3-yl]methyl]-2-methyl-1,1-dioxo-1,2,6-thiadiazinane-3,5-dicarboxamide], with less than 50 nM. On the same count and under the same terms, the result for `Cc1cn(-c2ccc(F)cc2F)nc1CNC(=O)C1CC(C(=O)Nc2ccc(F)c(Cl)c2)N(C)S(=O)(=O)N1` (single isomer, unassigned) [1144-ISOMER-A, N3-(3-chloro-4-fluoro-phenyl)-N5-[[1-(2,4-difluorophenyl)-4-methyl-pyrazol-3-yl]methyl]-2-methyl-1,1-dioxo-1,2,6-thiadiazinane-3,5-dicarboxamide] reads less than 50 nM; that for `CN1C(C(=O)Nc2ccc(F)c(Cl)c2)CC(C(=O)NCc2cnc(-c3ccccc3Cl)s2)NS1(=O)=O` (single isomer, unassigned) [Compound 912-ISOMER-A, N3-(3-chloro-4-fluoro-phenyl)-N5-[[2-(2-chlorophenyl)thiazol-5-yl]methyl]-2-methyl-1,1-dioxo-1,2,6-thiadiazinane-3,5-dicarboxamide], 100 to 10000 nM. On the same count and under the same terms, then `Cc1sc(N2CCC(NC(=O)C3CC(C(=O)Nc4ccc(F)c(Cl)c4)N(C)S(=O)(=O)N3)CC2)nc1C(=O)N(C)C` (stereo not drawn) [Compound 1093], with less than 50 nM. Regarding `COc1cccc(CNC(=O)C2CC(C(=O)Nc3ccc(F)c(C#N)c3)N(C)S(=O)(=O)N2)c1` (stereo not drawn) [Compound 835], the EC50 lay within 50 to 100 nM.

For the compound `CN1C(C(=O)Nc2ccc(F)c(Cl)c2)CC(C(=O)NC2CCN(c3ncccn3)CC2)NS1(=O)=O` (stereo not drawn) [Compound 855], the EC50 is less than 50 nM. Same read-out and setting: then `CN1C(C(=O)Nc2ccc(F)c(Cl)c2)CC(C(=O)NCc2ccccc2-c2cn(C)cn2)NS1(=O)=O` (stereo not drawn) [Compound 823], with less than 50 nM. Still for that read-out and setting: then `Cc1nc(-c2ccccc2F)sc1[C@H](NC(=O)C1CC(C(=O)Nc2ccc(F)c(Cl)c2)N(C)S(=O)(=O)N1)c1ccccc1` (single isomer, unassigned) [1101-ISOMER-A], with less than 50 nM.

As for `COc1ccc2nc(CNC(=O)C3CC(C(=O)Nc4ccc(F)c(Cl)c4)N(C)S(=O)(=O)N3)sc2c1` (single isomer, unassigned) [1011-ISOMER-B, N3-(3-Chloro-4-fluoro-phenyl)-N5-[(6-methoxy-1,3-benzothiazol-2-yl)methyl]-2-methyl-1,1-dioxo-1,2,6-thiadiazinane-3,5-dicarboxamide], the EC50 was less than 50 nM. Same read-out and setting: then `CN1C(C(=O)Nc2ccc(F)c(Cl)c2)CC(C(=O)NC2CCN(c3ccnc(Cl)c3)CC2)NS1(=O)=O` (single isomer, unassigned) [1012-ISOMER-A, N3-(3-Chloro-4-fluoro-phenyl)-N5-[1-(2-chloro-4-pyridyl)-4-piperidyl]-2-methyl-1,1-dioxo-1,2,6-thiadiazinane-3,5-dicarboxamide], with less than 50 nM; and `Cc1csc(CNC(=O)C2CC(C(=O)Nc3ccc(F)c(C#N)c3)N(C)S(=O)(=O)N2)n1` (stereo not drawn) [Compound 828], with 100 to 10000 nM; and `C[C@@H](NC(=O)C1CC(C(=O)Nc2ccc(F)c(C#N)c2)N(C)S(=O)(=O)N1)c1ccccc1` (stereo partly drawn) [Compound 834], with 100 to 10000 nM. Still for that read-out and setting: then `CN1C(C(=O)Nc2ccc(F)c(Cl)c2)CC(C(=O)NCc2cnc(-c3ccc(OCCN4CCCCC4)cc3)s2)NS1(=O)=O` (single isomer, unassigned) [Compound 922-ISOMER-A, N3-(3-chloro-4-fluoro-phenyl)-2-methyl-1,1-dioxo-N5-[[2-[4-[2-(1-piperidyl)ethoxy]phenyl]thiazol-5-yl]methyl]-1,2,6-thiadiazinane-3,5-dicarboxamide], with 100 to 10000 nM.

`CC(NC(=O)C1CC(C(=O)Nc2ccc(F)c(Cl)c2)N(C)S(=O)(=O)N1)c1cnc(-c2ccccc2Cl)s1` (stereo not drawn) [Compound 1019]: the EC50 was less than 50 nM. For the compound `CCN1C(C(=O)Nc2ccc(F)c(Cl)c2)CC(C(=O)NCc2cnc(C)s2)NS1(=O)=O` (stereo not drawn) [Compound 888], the EC50 fell in the range of 100 to 10000 nM. The same measure, in the same setting: then `Cc1nc(-c2ccccc2Cl)sc1CNC(=O)C1CC(C(=O)Nc2ccc(F)c(Cl)c2)N(C)S(=O)(=O)N1` (single isomer, unassigned) [1015-ISOMER-A, N3-(3-Chloro-4-fluoro-phenyl)-N5-[[2-(2-chlorophenyl)-4-methyl-thiazol-5-yl]methyl]-2-methyl-1,1-dioxo-1,2,6-thiadiazinane-3,5-dicarboxamide], with less than 50 nM; and `COc1ccccc1-c1ncc(CNC(=O)C2CC(C(=O)Nc3ccc(F)c(Cl)c3)N(C)S(=O)(=O)N2)s1` (single isomer, unassigned) [Compound 987-ISOMER-A, N3-(3-chloro-4-fluoro-phenyl)-N5-[[2-(2-methoxyphenyl)thiazol-5-yl]methyl]-2-methyl-1,1-dioxo-1,2,6-thiadiazinane-3,5-dicarboxamide], with less than 50 nM. On the same count and under the same terms, the result for `CN1C(C(=O)Nc2ccc(F)c(Cl)c2)CC(C(=O)NCc2cn(-c3ccccc3)cn2)NS1(=O)=O` (stereo not drawn) [Compound 1145] reads less than 50 nM. Same read-out and setting: the result for `CN1C(C(=O)Nc2ccc(F)c(Cl)c2)CC(C(=O)NC2CCN(S(C)(=O)=O)CC2)NS1(=O)=O` (stereo not drawn) [Compound 710] reads 100 to 10000 nM; that for `CN1C(C(=O)Nc2ccc(F)c(Cl)c2)CC(C(=O)NCc2ccc(Cl)cc2)NS1(=O)=O` (stereo not drawn) [Compound 729], less than 50 nM. As to `CN1C(C(=O)Nc2ccc(F)c(Cl)c2)CC(C(=O)NCc2cc(Br)no2)NS1(=O)=O` (stereo not drawn) [Compound 980], the half-maximal effective concentration (EC50) fell in the range of 100 to 10000 nM.

Turning to `CN1C(C(=O)Nc2ccc(F)c(Cl)c2)CC(C(=O)NCc2cnc(-c3ccc(F)cc3)s2)NS1(=O)=O` (single isomer, unassigned) [Compound 916-ISOMER-A, N3-(3-chloro-4-fluoro-phenyl)-N5-[[2-(4-fluorophenyl)thiazol-5-yl]methyl]-2-methyl-1,1-dioxo-1,2,6-thiadiazinane-3,5-dicarboxamide], the EC50 lay within 100 to 10000 nM.

As to `CN1C(C(=O)Nc2ccc(F)c(Cl)c2)CC(C(=O)NCc2ccccc2-n2cccn2)NS1(=O)=O` (stereo not drawn) [Compound 909], the EC50 was less than 50 nM. The same measure, in the same setting: the result for `CN1C(C(=O)Nc2ccc(F)c(C#N)c2)CC(C(=O)NC2CC2c2ccccc2)NS1(=O)=O` (stereo not drawn) [Compound 826] reads 100 to 10000 nM; that for `Cc1nc(-c2ccc(F)cc2F)sc1CNC(=O)C1CC(C(=O)Nc2ccc(F)c(Cl)c2)N(C)S(=O)(=O)N1` (single isomer, unassigned) [1083-ISOMER-A, N3-(3-chloro-4-fluoro-phenyl)-N5-[[2-(2,4-difluorophenyl)-4-methyl-thiazol-5-yl]methyl]-2-methyl-1,1-dioxo-1,2,6-thiadiazinane-3,5-dicarboxamide], less than 50 nM; that for `CN1C(C(=O)Nc2ccc(F)c(Cl)c2)CC(C(=O)NCc2cn(-c3ccccc3)nn2)NS1(=O)=O` (stereo not drawn) [Compound 1147], 50 to 100 nM.

What is called EC50 is the concentration that produces a half-maximal response.
